According to US20100120730A1, “6-BENZYL-2,3,4,7-TETRAHYDRO-INDOLO [2,3-C] QUINOLINE COMPOUNDS USEFUL AS PDE5 INHIBITORS” (NYCOMED GmbH, priority 2007, published 2010):
Counter-ions that a name gives are not always drawn.

Key:
[1] = target: T1, human PDE5 (Homo sapiens, UniProt O76074); test: Inhibition of PDE5 activity (modified SPA test, human platelet lysate); format: biochemical; settings: PDE5-containing human platelet lysate, 0.5 μM cGMP substrate, 37° C.
T1 construct: from tissue; host or cells: human platelets from fresh donor blood (10,000 g supernatant of sonified platelets)
Method: As a source for human PDE5, platelets were used. For that purpose, 150 ml fresh blood from human donors anticoagulated with citrate [final concentration 0.3% (w/v)] was centrifuged at 200 g for 10 min to obtain the so-called platelet-rich-plasma (PRP) as a supernatant. 1/10 volume of ACD solution (85 mM Na3-citrate, 111 mM D-glucose, 71 mM citric acid, pH 4.4) was added to 9/10 volume of PRP. After centrifugation (1,400 g, 10 min) the cell pellet was resuspended in 3 ml homogenization buffer (NaCl 140 mM, KCl 3.8 mM, EGTA 1 mM, MgCl2 1 mM, Tris-HCl 20 mM, beta-mercaptoethanol 1 mM, pH 8.2) plus protease-inhibitor mix giving rise to the final concentrations of 0.5 mM Pefablock (Roche), 10 μM Leupeptin, 5 μM Trypsininhibitor, 2 mM Benzamidin and 10 μM Pepstatin A. The suspension was sonified and thereafter centrifuged for 15 min at 10,000 g. The resulting supernatant (platelet lysate) was used for enzymatic testings.
PDE5A1 activity is inhibited by the compounds of the invention in a modified SPA (scintillation proximity assay) test, supplied by Amersham Biosciences (see procedural instructions “phosphodiesterase [3H]cAMP SPA enzyme assay, code TRKQ 7090”), carried out in 96-well microtitre plates (MTP's). The test volume is 100 μl and contains 20 mM Tris buffer (pH 7.4), 0.1 mg of BSA (bovine serum albumin)/ml, 5 mM Mg^2+, 1 μM motapizone, 10 nM PDE2 inhibitor BAY-60-7550, 0.5 μM cGMP (including about 50,000 cpm of [3H]cGMP as a tracer), 1 μl of the respective compound dilution in dimethylsulfoxide (DMSO) and sufficient PDE5-containing platelet lysat (10,000×g supernatant, see above) to ensure that 10-20 wt % of the cGMP is converted under the said experimental conditions. […] After a preincubation of 5 min at 37° C., the reaction was started by adding the substrate (cGMP) and the assay was incubated for a further 15 min; after that, it was stopped by adding SPA beads (50 μl). In accordance with the manufacturer's instructions, the SPA beads had previously been resuspended in water, but were then diluted 1:3 (v/v) in water; the diluted solution also contains 3 mM 8-methoxymethyl-3-isobutyl-1-methylxanthine (IBMX) to ensure a complete PDE activity stop. After the beads have been sedimented (>30 min), the MTP's are analyzed in commercially available luminescence detection devices. The corresponding IC50 values of the compounds for the inhibition of PDE activity are determined from the concentration-effect curves by means of non-linear regression.

melting point [°C]	IC50 [1] [nM]	Compound
244 to 245		CC1(C)CC(=O)c2c(nc(Cc3ccc(Br)cc3)c3[nH]c4ccccc4c23)C1 (as salt: HCl) [Example 5, 6-(4-Bromo-benzyl)-3,3-dimethyl-2,3,4,7-tetrahydro-indolo[2,3-c]quinolin-1-one, HCl salt]
214 to 215		CC1(C)CC(=O)c2c(nc(Cc3ccc([N+](=O)[O-])cc3)c3[nH]c4ccccc4c23)C1 (as salt: HCl) [Example 8, 3,3-Dimethyl-6-(4-nitro-benzyl)-2,3,4,7-tetrahydro-indolo[2,3-c]quinolin-1-one, HCl salt]
311 to 312		Brc1ccc(Cc2nc3c(c4c2[nH]c2ccccc24)CCCC3)cc1 (as salt: HCl) [Example 9, 6-(4-Bromo-benzyl)-2,3,4,7-tetrahydro-1H-indolo[2,3-c]quinoline, HCl salt]
	3.02	COc1ccc(Cc2nc3c(c4c2[nH]c2ccccc24)C(=O)CC(C)(C)C3)cc1 [Example 1, 6-(4-Methoxy-benzyl)-3,3-dimethyl-2,3,4,7-tetrahydro-indolo[2,3-c]quinolin-1-one]
177	6.31	COc1ccc(Cc2nc3c(c4c2[nH]c2ccccc24)C(=O)CCC3)cc1 [Example 2, 6-(4-Methoxy-benzyl)-2,3,4,7-tetrahydro-indolo[2,3-c]quinolin-1-one]
205	19.5	O=C1CCCc2nc(Cc3ccccc3)c3[nH]c4ccccc4c3c21 [Example 3, 6-Benzyl-2,3,4,7-tetrahydro-indolo[2,3-c]quinolin-1-one]
	10.7	CC1(C)CC(=O)c2c(nc(Cc3ccc(Br)cc3)c3[nH]c4ccccc4c23)C1 [Example 5, 6-(4-Bromo-benzyl)-3,3-dimethyl-2,3,4,7-tetrahydro-indolo[2,3-c]quinolin-1-one, HCl salt]
	12.6	COc1ccc(Cc2nc3c(c4c2[nH]c2ccccc24)CCCC3)cc1 [Example 6, 6-(4-Methoxy-benzyl)-2,3,4,7-tetrahydro-1H-indolo[2,3-c]quinoline, HCl salt]
	81.3	CC1(C)CC(=O)c2c(nc(Cc3ccc([N+](=O)[O-])cc3)c3[nH]c4ccccc4c23)C1 [Example 8, 3,3-Dimethyl-6-(4-nitro-benzyl)-2,3,4,7-tetrahydro-indolo[2,3-c]quinolin-1-one, HCl salt]
	22.9	Brc1ccc(Cc2nc3c(c4c2[nH]c2ccccc24)CCCC3)cc1 [Example 9, 6-(4-Bromo-benzyl)-2,3,4,7-tetrahydro-1H-indolo[2,3-c]quinoline, HCl salt]
164 to 166		CC1(C)CC(=O)c2c(nc(Cc3ccc([N+](=O)[O-])cc3)c3[nH]c4ccccc4c23)C1 [Example 16, 3,3-Dimethyl-6-(4-nitro-benzyl)-2,3,4,7-tetrahydro-indolo[2,3-c]quinolin-1-one]
	288	O=C1CCCc2nc(Cc3cccc([N+](=O)[O-])c3)c3[nH]c4ccccc4c3c21 [Example 19, 6-(3-Nitro-benzyl)-2,3,4,7-tetrahydro-indolo[2,3-c]quinolin-1-one]
	1.91	CC1(C)CC(=O)c2c(nc(Cc3ccc(O)cc3)c3[nH]c4ccccc4c23)C1 [Example 39, 6-(4-Hydroxy-benzyl)-3,3-dimethyl-2,3,4,7-tetrahydro-indolo[2,3-c]quinolin-1-one]
	25.7	Nc1ccc(Cc2nc3c(c4c2[nH]c2ccccc24)C(=O)CCC3)cc1 [Example 42, 6-(4-Amino-benzyl)-2,3,4,7-tetrahydro-indolo[2,3-c]quinolin-1-one]
	11.5	Nc1cccc(Cc2nc3c(c4c2[nH]c2ccccc24)C(=O)CCC3)c1 [Example 43, 6-(3-Amino-benzyl)-2,3,4,7-tetrahydro-indolo[2,3-c]quinolin-1-one]
	67.6	CC(=O)Nc1ccc(Cc2nc3c(c4c2[nH]c2ccccc24)C(=O)CCC3)cc1 [Example 46, N-[4-(1-Oxo-2,3,4,7-tetrahydro-1H-indolo[2,3-c]quinolin-6-ylmethyl)-phenyl]-acetamide]
	49	Nc1cccc(Cc2nc3c(c4c2[nH]c2ccccc24)C(O)CCC3)c1 (stereo not drawn) [Example 72, 6-(3-Amino-benzyl)-2,3,4,7-tetrahydro-1H-indolo[2,3-c]quinolin-1-ol]
	10.5	CC1(C)CC(=O)c2c(nc(Cc3ccc(NC(N)=O)cc3)c3[nH]c4ccccc4c23)C1 [Example 75, [4-(3,3-Dimethyl-1-oxo-2,3,4,7-tetrahydro-1H-indolo[2,3-c]quinolin-6-ylmethyl)-phenyl]-urea]

More lines, now with the values behind:

Compound	melting point [°C]	IC50 [1] [nM]
CC1(C)Cc2nc(Cc3ccc4c(c3)OCO4)c3[nH]c4ccccc4c3c2C(O)C1 (stereo not drawn) (as salt: HCl) [Example 59, 6-Benzo[1,3]dioxol-5-ylmethyl-3,3-dimethyl-2,3,4,7-tetrahydro-1H-indolo[2,3-c]quinolin-1-ol]	114 to 119	
CC1(C)CC(=O)c2c(nc(Cc3ccc4c(c3)OCO4)c3[nH]c4ccccc4c23)C1 [Example 7, 6-Benzo[1,3]dioxol-5-ylmethyl-3,3-dimethyl-2,3,4,7-tetrahydro-indolo[2,3-c]quinolin-1-one, HCl salt]		3.89
COc1cccc(Cc2nc3c(c4c2[nH]c2ccccc24)C(=O)CC(C)(C)C3)c1 [Example 10, 6-(3-Methoxy-benzyl)-3,3-dimethyl-2,3,4,7-tetrahydro-indolo[2,3-c]quinolin-1-one]		79.4
CC1(C)CC(=O)c2c(nc(Cc3cccc([N+](=O)[O-])c3)c3[nH]c4ccccc4c23)C1 [Example 13, 3,3-Dimethyl-6-(3-nitro-benzyl)-2,3,4,7-tetrahydro-indolo[2,3-c]quinolin-1-one]		135
CCC(=O)Nc1ccc(Cc2nc3c(c4c2[nH]c2ccccc24)C(=O)CC(C)(C)C3)cc1 [Example 45, N-[4-(3,3-Dimethyl-1-oxo-2,3,4,7-tetrahydro-1H-indolo[2,3-c]quinolin-6-ylmethyl)-phenyl]-propionamide]		34.7
CC1(C)Cc2nc(Cc3ccc4c(c3)OCO4)c3[nH]c4ccccc4c3c2C(O)C1 (stereo not drawn) [Example 59, 6-Benzo[1,3]dioxol-5-ylmethyl-3,3-dimethyl-2,3,4,7-tetrahydro-1H-indolo[2,3-c]quinolin-1-ol]		2.69
COc1ccc(Cc2nc3c(c4c2[nH]c2ccccc24)C(O)CC(C)(C)C3)c(F)c1 (stereo not drawn) [Example 65, 6-(2-Fluoro-4-methoxy-benzyl)-3,3-dimethyl-2,3,4,7-tetrahydro-1H-indolo[2,3-c]quinolin-1-ol]		1.12
COc1ccc(Cc2nc3c(c4c2[nH]c2ccccc24)C(O)CC(C)(C)C3)cc1F (stereo not drawn) [Example 68, 6-(3-Fluoro-4-methoxy-benzyl)-3,3-dimethyl-2,3,4,7-tetrahydro-1H-indolo[2,3-c]quinolin-1-ol]		1.58
CC1(C)Cc2nc(Cc3ccc(O)c(F)c3)c3[nH]c4ccccc4c3c2[C@H](O)C1 [Example 87, (R)-6-(3-Fluoro-4-hydroxy-benzyl)-3,3-dimethyl-2,3,4,7-tetrahydro-1H-indolo[2,3-c]quinolin-1-ol]	232 to 234	
CC1(C)Cc2nc(Cc3ccc(O)c(F)c3)c3[nH]c4ccccc4c3c2[C@@H](O)C1 [Example 88, (S)-6-(3-Fluoro-4-hydroxy-benzyl)-3,3-dimethyl-2,3,4,7-tetrahydro-1H-indolo[2,3-c]quinolin-1-ol]	233 to 234	
COc1c(F)cc(Cc2nc3c(c4c2[nH]c2ccccc24)[C@@H](O)CC(C)(C)C3)cc1F [Example 89, (S)-6-(3,5-Difluoro-4-methoxy-benzyl)-3,3-dimethyl-2,3,4,7-tetrahydro-1H-indolo[2,3-c]quinolin-1-ol]	161 to 162	
COc1c(F)cc(Cc2nc3c(c4c2[nH]c2ccccc24)[C@H](O)CC(C)(C)C3)cc1F [Example 90, (R)-6-(3,5-Difluoro-4-methoxy-benzyl)-3,3-dimethyl-2,3,4,7-tetrahydro-1H-indolo[2,3-c]quinolin-1-ol]	161 to 162	
COc1ccc(Cc2nc3c(c4c2[nH]c2ccccc24)[C@@H](OC(=O)[C@@H]2CCC(=O)N2)CC(C)(C)C3)cc1F [Example 98, (S)-6-(3-Fluoro-4-methoxy-benzyl)-3,3-dimethyl-2,3,4,7-tetrahydro-1H-indolo[2,3-c]quinolin-1-ol pyroglutamate]	185 to 187	
